By pIC50 is commonly meant the negative decadic logarithm of the IC50, by convention in mol/L.

pIC50: −log10 of the molar value. Read-outs that look alike come from different tables or passages of the source.

The results in this text go back to patent US20230091336A1, “CANNABINOID COMPOSITIONS” (priority 2020, published 2023).

Test [1] relates to SOCE in HEK-293 human embryonic kidney cells. Briefly: SOCE Fura-2 bioassay in HEK293 cells. Format: cell-based. To be noted: for pIC50: Table 5; for inhibitory effect in immune cells compared with non-immune HEK293 cells: 10 μM, HEK293 (FIG. 8) vs immune cells.
Another test relates to SOCE in Jurkat T cells. Briefly: SOCE Fura-2 bioassay in Jurkat cells. Format: cell-based, human. To be noted: for combinatory effect on SOCE inhibition when paired with CBGA (isobolographic analysis): pairs expected to inhibit 50%, FIGS. 10A-10T; for effect on SOCE Ca^2+ signals, pure compounds: 10 μM, 1 μM thapsigargin, FIG. 7A, 7C.
For test [2], the system named is SOCE in U937 human monocytes. Kind of test: SOCE Fura-2 bioassay in U937 cells. The settings on record: Table 5.
Method: (§1) Briefly, SOCE inhibition experiments were performed as described in Example 8, using each of the hemp extracts listed below and in Tables 6A and 6B at six concentrations each in each of the five cell types listed above to obtain dose response curves, as shown in FIGS. 11A-11SS. […] All data are averages of three independent runs±SEM. […] Hemp extracts used in FIGS. 11A-11SS are: Sour Space Candy (SSC), Hawaiian Haze (HH), Special Sauce (SS), Suver Haze (SH), White CBG (WCBG), Elektra (ELEK), Cherry Wine (CW), Lifter (LIF), Grape Soda (GS).
Test [3] has as its system SOCE in Luva human mast cells. Kind of test: SOCE Fura-2 bioassay in Luva cells. The settings on record: Table 5.
Method: as §1
The subject of test [4] is SOCE in THP-1 human monocytes. Briefly: SOCE Fura-2 bioassay in THP-1 cells. The settings on record: for combinatory effect on SOCE inhibition when paired with CBGA (isobolographic analysis): pairs expected to inhibit 50%, FIGS. 10U-10Y.
In test [5] the test system is SOCE in RBL-2H3 rat mast cells. Kind of test: SOCE Fura-2 bioassay in RBL-2H3 cells. The settings on record: Table 5.
Method: as §1
The mark [6] stands for this setting: Homo sapiens, HEK293, read-out: IC50 SOCE, purified cannabinoids, HEK-293.
[7] abbreviates: Homo sapiens, read-out: IC50 SOCE, purified cannabinoids, Jurkat, Table 5.
[8] abbreviates: Homo sapiens, U-937, read-out: IC50 SOCE, purified cannabinoids, U937.
The mark [9] stands for this setting: Homo sapiens, Mast cell, read-out: IC50 SOCE, purified cannabinoids, Luva.
[10] abbreviates: Homo sapiens, THP-1, read-out: IC50 SOCE, purified cannabinoids.
Setting [11] is: Rattus norvegicus, RBL-2H3, read-out: IC50 SOCE, purified cannabinoids, RBL-2H3.

For the molecule `C=C(C)c1ccc(C)cc1-c1c(O)cc(CCCCC)cc1O` [CBND, 5′-methyl-4-pentyl-2′-(prop-1-en-2-yl)-[1,1′ biphenyl]-2,6-diol], the pIC50 is 4.67 in test [1] (setting [6]); 5.17 in the test on SOCE in Jurkat T cells (setting [7]); 4.62 in test [2] (setting [8]); 4.72 in test [3] (setting [9]); less than 4.30 in test [4] (setting [10]); 4.48 in test [5] (setting [11]). Besides, the “combinatory effect on SOCE inhibition when paired with CBGA (isobolographic analysis)” value in the test with SOCE in Jurkat T cells is reported as “Simple additive”.

For the molecule `CCCCCc1cc(O)c2c(c1)OC(C)(C)[C@@H]1CCC(C)=C[C@@H]21` [Δ9-THC, (6aR,10aR)-6,6,9-trimethyl-3-pentyl-6a,7,8,10a-tetrahydro-6H-benzo[c]chromen-1-ol], the pIC50 is less than 4.30 in test [1] (setting [6]); less than 4.30 with SOCE in Jurkat T cells (setting [7]); less than 4.30 in test [2] (setting [8]); 6.01 in test [3] (setting [9]); less than 4.30 in test [4] (setting [10]); less than 4.30 in test [5] (setting [11]). In the test with SOCE in Jurkat T cells, the “effect on SOCE Ca^2+ signals, pure compounds” value (“effect on SOCE Ca^2+ signals” below) was “low to no effects”.

In the case of `CCCCCc1cc(O)c2c(c1)OC(C)(C)[C@@H]1CCC(C(=O)O)=C[C@@H]21` [11-COOH-Δ9-THC, (6aR,10aR)-1-hydroxy-6,6-dimethyl-3-pentyl-6a,7,8,10a-tetrahydro-6H-benzo[c]chromene-9-carboxylic acid], the “inhibitory effect in immune cells compared with non-immune HEK293 cells” value in test [1] is listed as “selective”.

Take `CCCc1cc(O)c(C/C=C(\C)CCC=C(C)C)c(O)c1` [CBGV, (E)-2-(3,7-dimethylocta-2,6-dien-1-yl)-5-propylbenzene-1,3-diol]: the pIC50 in test [1] (setting [6]) was 5.04; in the test on SOCE in Jurkat T cells (setting [7]), 5.28; in test [2] (setting [8]), 4.84; in test [3] (setting [9]), 5.19; in test [4] (setting [10]), 4.39; in test [5] (setting [11]), 4.51. Moreover, the “combinatory effect on SOCE inhibition when paired with CBGA (isobolographic analysis)” value in the test with SOCE in Jurkat T cells is “supra-additive”. The “combinatory effect when paired with 2.2 μM CBGA” value in test [4] (THP-1, 10 μM cannabinoid + 2.2 μM CBGA, FIG. 10Z) is on record as “simple additive agonists”.

Regarding `CCCCCc1cc(O)c2c(c1)O[C@]1(C)CC[C@@H]3C1[C@@H]2C3(C)C` (stereo partly drawn) [CBL, (1aS,1a1R,3aR,8bR)-1,1,3a-trimethyl-6-pentyl-1a,1a1,2,3,3a,8b-hexahydro-1H-4-oxabenzo[f]cyclobuta[cd]inden-8-ol], the pIC50 (in test [1] (setting [6]); in the test on SOCE in Jurkat T cells (setting [7]); in test [2] (setting [8]); in test [3] (setting [9]); in test [4] (setting [10]); in test [5] (setting [11])) was less than 4.30 in each case. Moreover, the “combinatory effect on SOCE inhibition when paired with CBGA (isobolographic analysis)” value with SOCE in Jurkat T cells is “Simple additive”.

For the molecule `C=C(C)[C@@H]1CCC(C)=C[C@H]1c1c(O)cc(CCC)c(C(=O)O)c1O` [CBDVA, (1′R,2′R)-2,6-dihydroxy-5′-methyl-2′-(prop-1-en-2-yl)-4-propyl-1′,2′,3′,4′-tetrahydro-[1,1′-biphenyl]-3-carboxylic acid], the pIC50 in test [1] (setting [6]) was 4.68; with SOCE in Jurkat T cells (setting [7]), 4.95; in test [2] (setting [8]), 4.97; in test [3] (setting [9]), 4.95; in test [4] (setting [10]), 5.07; in test [5] (setting [11]), 4.63. The “combinatory effect on SOCE inhibition when paired with CBGA (isobolographic analysis)” value with SOCE in Jurkat T cells was “sub-additive”.

As to `CCCCCc1cc2c(c(O)c1C(=O)O)[C@@H]1C=C(C)CC[C@H]1C(C)(C)O2` [THCA, (6aR, 10aR)-1-hydroxy-6,6,9-trimethyl-3-pentyl-6a,7,8,10a-tetrahydro-6H-benzo[c]chromene-2-carboxylic acid], the pIC50 was 4.68 in test [1] (setting [6]); 5.65 in the test with SOCE in Jurkat T cells (setting [7]); 5.09 in test [2] (setting [8]); 6.24 in test [3] (setting [9]); 4.98 in test [4] (setting [10]); 4.76 in test [5] (setting [11]). In addition, the “effect on SOCE Ca^2+ signals” value in the test on SOCE in Jurkat T cells is on record as “fully block the Ca^2+ signals”. In addition, the results for the “combinatory effect on SOCE inhibition when paired with CBGA (isobolographic analysis)” value (in the test on SOCE in Jurkat T cells; in test [4] (THP-1)) were “Simple additive” and “sub-additive”, respectively.

As for `CCCCCc1cc(OC)c2c(c1)OC(C)(C)c1ccc(C)cc1-2` [CBNM, 1-methoxy-6,6,9-trimethyl-3-pentyl-6H-benzo[c]chromene], the pIC50 (in test [1] (setting [6]); in the test with SOCE in Jurkat T cells (setting [7]); in test [2] (setting [8]); in test [3] (setting [9]); in test [4] (setting [10]); in test [5] (setting [11])) was less than 4.30 in each case.

Regarding `CCCCCc1cc2c(c(O)c1C(=O)O)[C@@H]1[C@H]3C(CC[C@@]3(C)O2)C1(C)C` (stereo partly drawn) [CBLA, (1aS,1a1R,3aR,8bR)-8-hydroxy-1,1,3a-trimethyl-6-pentyl-1a, 1a1,2,3,3a, 8b-hexahydro-1H-4-oxabenzo[f]cyclobuta[cd]indene-7-carboxylic acid], the pIC50 in test [1] (setting [6]) is 4.51; in the test with SOCE in Jurkat T cells (setting [7]), 5.03; in test [2] (setting [8]), 4.55; in test [3] (setting [9]) it was 4.68; in test [4] (setting [10]) it was 4.91; in test [5] (setting [11]), less than 4.30. The “combinatory effect on SOCE inhibition when paired with CBGA (isobolographic analysis)” value in the test on SOCE in Jurkat T cells was “sub-additive”.

Consider `C=C(C)[C@@H]1CCC(C)=C[C@H]1c1c(O)cc(CCC)cc1O` [CBDV, (1′R,2′R)-5′-methyl-2′-(prop-1-en-2-yl)-4-propyl-1′,2′,3′,4′-tetrahydro-[1,1′-biphenyl]-2,6-diol], for which the “inhibitory effect in immune cells compared with non-immune HEK293 cells” value in test [1] was “selective”. For the same molecule, the pIC50 in test [1] (setting [6]) was 4.75; in the test on SOCE in Jurkat T cells (setting [7]), 5.22; in test [2] (setting [8]), 4.76; in test [3] (setting [9]), 6.77; in test [4] (setting [10]), less than 4.30; in test [5] (setting [11]), 4.52. In the test on SOCE in Jurkat T cells, the “combinatory effect on SOCE inhibition when paired with CBGA (isobolographic analysis)” value was “sub-additive”.

As for `CCCc1cc(O)c(C/C=C(\C)CCC=C(C)C)c(O)c1C(=O)O` [CBGVA, (E)-3-(3,7-dimethylocta-2,6-dien-1-yl)-2,4-dihydroxy-6-propylbenzoic acid], the pIC50 was 5.68 in test [1] (setting [6]); 5.94 in the test on SOCE in Jurkat T cells (setting [7]); 5.54 in test [2] (setting [8]); 5.60 in test [3] (setting [9]); 5.59 in test [4] (setting [10]); 5.38 in test [5] (setting [11]). Also, the “combinatory effect on SOCE inhibition when paired with CBGA (isobolographic analysis)” value in the test on SOCE in Jurkat T cells was “Simple additive”; in test [4] (THP-1), “sub-additive”.

With `C=C(C)[C@@H]1CCC(C)=C[C@H]1c1c(O)cc(CCCCC)c(C(=O)O)c1O` [CBDA, (1′R,2′R)-2,6-dihydroxy-5′-methyl-4-penlyl-2′-(prop-1-en-2-yl)-1′,2′,3′,4′-tetrahydro-[1,1′-biphenyl]-3-carboxylic acid], the “inhibitory effect in immune cells compared with non-immune HEK293 cells” value in test [1] was “selective”. Also, the pIC50 in test [1] (setting [6]) was 4.57; in the test with SOCE in Jurkat T cells (setting [7]), 5.39; in test [2] (setting [8]), 5.23; in test [3] (setting [9]), 5.62; in test [4] (setting [10]) it was 5.29; in test [5] (setting [11]), 4.79. Moreover, in the test with SOCE in Jurkat T cells, the “effect on SOCE Ca^2+ signals” value is “fully block the Ca^2+ signals”. The “combinatory effect on SOCE inhibition when paired with CBGA (isobolographic analysis)” value (in the test with SOCE in Jurkat T cells; in test [4] (THP-1)) was “sub-additive” in each case.

In the case of `CCCCCc1cc2c(c(O)c1C(=O)O)-c1cc(C)ccc1C(C)(C)O2` [CBNA, 1-hydroxy-6,6,9-trimethyl-3-pentyl-6H-benzo[c]chromene-2-carboxylic acid], the pIC50 in test [1] (setting [6]) was 4.53; in the test on SOCE in Jurkat T cells (setting [7]) it was 6.00; in test [2] (setting [8]) it was 4.72; in test [3] (setting [9]) it was less than 4.30; in test [4] (setting [10]), 5.14; in test [5] (setting [11]), 4.65. Also, the “combinatory effect on SOCE inhibition when paired with CBGA (isobolographic analysis)” value in the test on SOCE in Jurkat T cells is reported as “Simple additive”; in test [4] (THP-1), “sub-additive”.

For `CCCCCc1cc(O)c2c(c1)OC(C)(CCC=C(C)C)C=C2` (stereo not shown) [CBC, 2-methyl-2-(4-methylpent-3-en-1-yl)-7-pentyl-2H-chromen-5-ol], the pIC50 was 4.73 in test [1] (read-out: IC50 SOCE, purified cannabinoids, HEK-293); 4.88 in the test with SOCE in Jurkat T cells (read-out: IC50 SOCE, purified cannabinoids, Table 5); 4.39 in test [2] (read-out: IC50 SOCE, purified cannabinoids, U937); 4.57 in test [3] (read-out: IC50 SOCE, purified cannabinoids, Luva); less than 4.30 in test [4] (read-out: IC50 SOCE, purified cannabinoids, THP-1, Table 5); 4.50 in test [5] (read-out: IC50 SOCE, purified cannabinoids, RBL-2H3).

As for `CCCCCc1cc2c(c(O)c1C(=O)O)C=C[C@@](C)(CCC=C(C)C)O2` [CBCA, (R)-5-hydroxy-2-methyl-2-(4-methylpent-3-en-1-yl)-7-pentyl-2H-chromene-6-carboxylic acid], the negative logarithm of the IC50 (pIC50) in test [1] (setting [6]) is less than 4.30; with SOCE in Jurkat T cells (setting [7]) it was 5.95; in test [2] (setting [8]) it was less than 4.30; in test [3] (setting [9]), less than 4.30; in test [4] (setting [10]), 4.54; in test [5] (setting [11]), less than 4.30. The “combinatory effect on SOCE inhibition when paired with CBGA (isobolographic analysis)” value with SOCE in Jurkat T cells is on record as “Simple additive”.

As to `CCCc1cc(O)c2c(c1)OC(C)(C)[C@@H]1CCC(C)=C[C@@H]21` [THCV, trimethyl-3-propyl-6a,7,8,10a-tetrahydro-6H-benzo[c]chromen-1-ol], the pIC50 in test [1] (setting [6]) is less than 4.30; with SOCE in Jurkat T cells (setting [7]), 4.97; in test [2] (setting [8]), less than 4.30; in test [3] (setting [9]), less than 4.30; in test [4] (setting [10]), less than 4.30; in test [5] (setting [11]) it was less than 4.30.
